Measured values: US20250206740A1, “PIPERIDINYL-METHYLPURINE PYRIMIDINES AND RELATED COMPOUNDS AND THEIR USE IN TREATING DISEASES AND CONDITIONS” (K36 Therapeutics, Inc., priority 2022, published 2025)

Target: recombinant human NSD2 (Homo sapiens (Human), UniProt O96028)
Experiment: NSD2 inhibitory activity, modified RBC HotSpot HMT Assay (radiometric, 3H-SAM, oligonucleosome substrate)
Format: biochemical
Conditions: recombinant human NSD2 2 nM, oligonucleosomes from Chicken 0.05 mg/ml, 3H-SAM 1 μM, 1 hour at 30° C.
Description: Exemplary compounds were tested for NSD2 inhibitory activity using a modified RBC HotSpot HMT Assay.
A reaction mixture was prepared by adding oligonucleosomes from Chicken (0.05 mg/ml) to freshly prepared reaction buffer containing 50 mM Tris-HCl (pH 8.5), 50 mM NaCl, 5 mM MgCl2, 0.01% Brij35, 1 mM DTT, and 1% DMSO followed by the addition of recombinant human NSD2, (amino acids 2-end) with N-terminal His tag (2 nM; GenBank Accession No. NM_001042424; MW=155.5 kDa; expressed in Sf9 insect cells) and gentle mixing. The test compounds were diluted in DMSO, added to the reaction mixture in nanoliter amounts by using Acoustic Technology (Echo 550, LabCyte Inc. Sunnyvale, CA) and incubated for 20 minutes at room temperature. The reaction was initiated by the addition of S-Adenosyl-L-[methyl-^3H] methionine (3H-SAM; 1 μM), and the mixture was incubated for 1 hour at 30° C. The reaction mixture was delivered to filter paper and the methylated substrate was quantified by scintillation counting. Data analysis was performed using Excel and GraphPad Prism software for IC50 curve fits. For additional information on the histone methyltransferase assay, see, for example, Horiuchi K Y, et al., “Assay Development for Histone Methyltransferases,” Assay Drug Dev Technol. 2013 May; 11 (4): 227-36.

Sequence of recombinant human NSD2 (O96028 2-1365 limits assumed): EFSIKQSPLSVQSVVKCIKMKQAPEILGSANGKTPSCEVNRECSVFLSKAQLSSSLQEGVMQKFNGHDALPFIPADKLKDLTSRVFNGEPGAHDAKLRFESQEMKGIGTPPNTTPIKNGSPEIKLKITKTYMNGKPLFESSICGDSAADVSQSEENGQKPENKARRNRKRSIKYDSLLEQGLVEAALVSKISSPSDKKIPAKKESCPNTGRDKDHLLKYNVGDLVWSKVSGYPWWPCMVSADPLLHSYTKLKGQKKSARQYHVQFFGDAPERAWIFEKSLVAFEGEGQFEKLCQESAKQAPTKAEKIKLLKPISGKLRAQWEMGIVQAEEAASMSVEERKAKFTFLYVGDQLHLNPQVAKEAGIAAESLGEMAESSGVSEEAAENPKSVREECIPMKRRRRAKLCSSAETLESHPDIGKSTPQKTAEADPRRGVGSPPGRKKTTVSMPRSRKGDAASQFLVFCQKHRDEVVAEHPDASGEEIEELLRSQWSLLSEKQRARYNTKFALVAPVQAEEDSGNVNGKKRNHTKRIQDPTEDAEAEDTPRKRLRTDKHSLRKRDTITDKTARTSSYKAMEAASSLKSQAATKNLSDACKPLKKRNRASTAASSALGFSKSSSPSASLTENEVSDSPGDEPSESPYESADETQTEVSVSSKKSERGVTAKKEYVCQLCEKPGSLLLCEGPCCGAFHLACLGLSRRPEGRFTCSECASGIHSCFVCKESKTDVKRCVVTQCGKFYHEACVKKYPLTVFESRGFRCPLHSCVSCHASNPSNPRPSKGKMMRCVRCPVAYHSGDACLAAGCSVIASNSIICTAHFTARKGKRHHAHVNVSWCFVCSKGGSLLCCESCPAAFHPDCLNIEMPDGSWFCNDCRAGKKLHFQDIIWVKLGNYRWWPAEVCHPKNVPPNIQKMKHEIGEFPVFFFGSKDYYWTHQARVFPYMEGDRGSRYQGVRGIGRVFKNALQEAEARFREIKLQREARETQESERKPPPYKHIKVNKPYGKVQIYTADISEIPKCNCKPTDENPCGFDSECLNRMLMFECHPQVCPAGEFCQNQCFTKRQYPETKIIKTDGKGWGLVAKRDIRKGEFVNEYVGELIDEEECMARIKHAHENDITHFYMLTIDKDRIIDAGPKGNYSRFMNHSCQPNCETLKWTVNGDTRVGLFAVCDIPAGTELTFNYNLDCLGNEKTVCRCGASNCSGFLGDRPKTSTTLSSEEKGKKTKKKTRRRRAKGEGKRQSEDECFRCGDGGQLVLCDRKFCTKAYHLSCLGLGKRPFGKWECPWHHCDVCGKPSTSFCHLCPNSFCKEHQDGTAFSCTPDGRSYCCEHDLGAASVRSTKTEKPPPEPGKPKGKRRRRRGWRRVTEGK

| Structure (SMILES) | IC50 [µM] |
| --- | --- |
| COc1cc(F)c(-c2ncc(N3CCC[C@](N)([C@H](O)C(F)F)C3)c(Cn3cnc4c(N)ncnc43)n2)cc1F [Compound I-1, (S)-1-((R)-3-amino-1-(4-((6-amino-9H-purin-9-yl)methyl)-2-(2,5-difluoro-4-methoxyphenyl)pyrimidin-5-yl)piperidin-3-yl)-2,2-difluoroethan-1-ol] | 0.1 to 1 |
| COc1cc(F)c(-c2cc(Cn3cnc4c(N)ncnc43)c(N3CCC[C@](N)([C@H](O)C(F)F)C3)nn2)cc1F [Compound I-6, (S)-1-((R)-3-amino-1-(4-((6-amino-9H-purin-9-yl)methyl)-6-(2,5-difluoro-4-methoxyphenyl)pyridazin-3-yl)piperidin-3-yl)-2,2-difluoroethan-1-ol] | 0.1 to 1 |
| COc1cc(F)c(-c2nc(Cn3cnc4c(N)ncnc43)c(N3CCC[C@@](N)([C@H](O)C(F)F)C3)s2)cc1F [II-2] | 0.01 to 0.1 |
